Measured values as given in patent US20190048321A1, “Macrophage Enrichment of Cancer Stem Cells” (UNIVERSITY OF SOUTH CAROLINA, priority 2017, published 2019).

Tests used:
[1] = test system: MDA-MB-231 human breast cancer cells; assay: 3D PEGDA hydrogel culture of MDA-MB-231 cancer cells alone treated with Paclitaxel (MDA+PTX); type: cell-based
Description: (§1) Polyethylene glycol was functionalized with acrylate end-groups by reaction with acryloyl chloride using well-established procedures to generate a photopolymerizable polyethylene glycol diacrylate (PEGDA). The PEGDA and a photoinitiator (4-(2-hydroxyethoxy)phenyl-(2-hydroxy-2-propyl) ketone (commercial name Irgacure-2959)) were dissolved in aqueous solution to generate a hydrogel precursor solution. Prior to cure, the hydrogel precursor solution was combined with MDA-MB-231 human breast cancer cells alone (MDA), with human spleen-derived macrophages alone (Mac) or with both (MDA+Mac).
(§2) To form the matrices, the cancer cells and/or macrophages were suspended in the PEGDA hydrogel precursor solution, the suspension was pipetted in a tissue culture plate as a thin film, and the film was photopolymerized with UV radiation to encapsulate the cells in the hydrogel matrix.
(§3) This co-culture system was also used to screen Paclitaxel (PTX) toxicity against CSCs. […] MDA cancer cells cultured alone with no PTX (MDA) grew by forming tumor spheres with mixed population of stem and differentiated cells and as shown the growing cells expressed CSC markers.

[2] = test system: CSCs in MDA-MB-231 breast tumor cells; assay: 3D PEGDA hydrogel co-culture of MDA-MB-231 cancer cells with macrophages treated with Paclitaxel (MDA+Mac/PTX); type: cell-based, human
Description: as §1, §2, §3

[3] = test system: MDA-MB-231 cells; conditions: 2D tissue culture plates, previous studies; cited from earlier work

SMILES: CC(=O)O[C@H]1C(=O)[C@@]2(C)[C@H]([C@H](OC(=O)c3ccccc3)[C@]3(O)C[C@H](OC(=O)[C@H](O)[C@@H](NC(=O)c4ccccc4)c4ccccc4)C(C)=C1C3(C)C)[C@]1(OC(C)=O)CO[C@@H]1C[C@@H]2O [PTX, Paclitaxel]
- cell number ([1]; MDA cancer cells alone treated with PTX (MDA+PTX) (FIG. 4a)): increased somewhat
- expression of CSC markers ([1]; MDA cancer cells alone treated with PTX (MDA+PTX) (FIG. 4b-d)): increased significantly
- cell growth / cell content ([2]; MDA cancer cells with macrophages in 5 kPa PEGDA matrix, treated with PTX (FIG. 4a)): effective in halting cell growth and the cell content decreased
- expression of CSC markers (CD44, ABCG2, EGFR) ([2]; MDA cancer cells with macrophages treated with PTX, with incubation (FIG. 4b-d)): sharply increased
- effectiveness against CSCs ([2]; MDA+Mac/PTX co-culture screen, MDA-MB-231 breast tumor cells): ineffective against CSCs
- effectiveness against MDA-MB-231 cells [3]: effective
